The text below walks through data of patent US11718637B2, “Prodrugs of 4′-C-substituted-2-halo-2′- deoxyadenosine nucleosides and methods of making and using the same” (Gilead Sciences, Inc., priority 2020, dated 2023).

The structures appear in SMILES notation. Values after ≈ are worked out from the molar mass of the structure shown. Where only a bound is given, the exact number is not on record here.

A short description of series [1]: Kinetic solubility analysis (CLND). It counts as physicochemical. To be noted: 24.2 °C, kinetic from dmso stock, from DMSO stocks, 1.0% DMSO, 24-hour incubation at ambient temperature, medium (0.1N HCl or PBS 7.4) not stated. On the procedure: Kinetic Solubility Analysis (CLND)
0.1N HCl: Hydrochloric acid, 0.1N standardized solution.
1×PBS, 7.4: Phosphate Buffered Saline solution 10×, PBS 50 mL was added to approximately 450 mL HPLC grade H2O. The volume of the solution was then adjusted to 500 mL for a total dilution factor of 1:10 and a final PBS concentration of 1×. The pH of the final solution was measured and found to be 7.4.
Kinetic Solubility from DMSO Stocks: 100-fold dilutions of each DMSO stock solution were prepared in singleton by combining 3 μL of DMSO stock with 297 μL of the appropriate media in a Millipore solubility filter plate with a […] polycarbonate filter membrane using Hamilton Starlet liquid handling. The final DMSO concentration is 1.0% and maximum theoretical compound concentration is 100 μM (assuming stock concentration of 10 mM). The filter plate was sealed. Following 24-hour incubation at ambient temperature (24.2-27.5° C.), the samples were vacuum filtered and the filtrates were collected in a 96 well polypropylene plate for analysis. The collection plate was sealed for analysis.
Filtrates were injected into the nitrogen detector for quantification. The results are reported here in μM.
Calculation of Results: The equimolar nitrogen response of the detector was calibrated using standards which spanned the dynamic range of the instrument from […] nitrogen. The filtrates were quantified with respect to this calibration curve. The calculated solubility values were corrected for background nitrogen present in the DMSO and the media used to prepare the samples. All reported values for compounds containing adjacent nitrogen atoms in a ring structure should be increased by ˜25%. […] The solubility results presented assume that the samples were free of nitrogen containing impurities and were stable under the assay conditions.

In series [2] the test system is HIV-1 (IIIB). Kind of series: Antiviral assay in MT-4 cells. As to conditions: Human immunodeficiency virus 1, MT4, 120 h; HIV-1 IIIB replication in MT-4 cells, 5 days incubation, Cell Titer Glo; read-out: EC50. It counts as cell-based. On the procedure:
(§1) Compounds were tested in a high-throughput 384-well assay format for their ability to inhibit the replication of HIV-1 (IIIB) in MT-4 cells. Compounds were serially diluted (1:3) in DMSO on 384-well polypropylene plates and further diluted 200-fold into complete RPMI media (10% FBS, 1% P/S) using the Biotek Micro Flow and Labcyte ECHO acoustic dispenser. Each plate contained up to 8 test compounds, with negative (No Drug Control) and 5 μM AZT positive controls. MT-4 cells were pre-infected with 10 μL of either RPMI (mock-infected) or a fresh 1:250 dilution of HIV-1 IIIB concentrated virus stock. Infected and uninfected MT-4 cells were further diluted in complete RPMI media and added to each plate using a Micro Flow dispenser. After 5 days incubation in a humidified and temperature-controlled incubator (37° C.), Cell Titer Glo (Promega) was added to the assay plates and chemiluminescence read using an Envision plate-reader. EC50 values were defined as the compound concentration that causes a 50% decrease in luminescence signal, and were calculated using a sigmoidal dose-response model to generate curve fits.

The nature of series [3]: Cytotoxicity assay in MT-4 cells. It counts as cell-based. As to conditions: human; uninfected MT-4 cells, 5 days incubation, Cell Titer Glo. On the procedure: as §1, with “fits. Assays were performed as above except uninfected MT-4 cells were added to each well containing test compound. In addition, 10 μM puromycin was added to the last column of each assay plate to assess a base level of cytotoxicity.” for “fits.”
For orientation: Cellular ATP, detected with luciferase, serves as a proxy for viable cell number.

What is called kinetic solubility is solubility judged after dilution from a stock solution rather than from solid. What is called EC50 is the concentration giving half of the maximal effect. A word on the CC50: it is the concentration giving 50% cytotoxicity. For the molecule `C#C[C@]1(COC(=O)CCCCCC)O[C@@H](n2cnc3c(N)nc(F)nc32)C[C@@H]1OC(=O)CCCCCC` [Compound 17, (2R,3S,5R)-5-(6-amino-2-fluoro-9H-purin-9-yl)-2-ethynyl-2-((heptanoyloxy)methyl)tetrahydrofuran-3-yl heptanoate], in series [1], the solubility (kinetic) at 24 h was less than 1 µM. In addition, the EC50 in series [2] is 7 nM. The same molecule displayed a CC50 at 5 days in series [3] greater than 20900 nM.

Take `C#C[C@]1(COC(=O)CCCCCC)O[C@@H](n2cnc3c(NC(=O)CCCCCC)nc(F)nc32)C[C@@H]1OC(=O)CCCCCC` [Compound 18, (2R,3S,5R)-2-ethynyl-5-(2-fluoro-6-heptanamido-9H-purin-9-yl)-2-((heptanoyloxy)methyl)tetrahydrofuran-3-yl heptanoate-3-yl 2-((palmitoyloxy)methyl)benzoate]: in series [1], the solubility (kinetic) at 24 h worked out at 1.5 µM (≈ 0.945 µg/mL). In addition, the EC50 in series [2] turned out to be 20 nM. Moreover, in series [3], the CC50 at 5 days was greater than 10100 nM.
